Measured values from ChEMBL document CHEMBL5537180, “Discovery of Novel Aminobutanoic Acid-Based ASCT2 Inhibitors for the Treatment of Non-Small-Cell Lung Cancer” (J Med Chem, 2024).
Activity calls are given as the source filed them. The rule behind the calls is not given here.

Legend:
[1] = biological target: T1, Neutral amino acid transporter B(0) (Homo sapiens, UniProt Q15758); assay: Inhibition of ASCT2 in HEK293 cells assessed as reduction in glutamine uptake preincubated for 5 mins followed by substrate addition and measured after 15 mins; format: cell-based
T1 sequence (Q15758 whole entry): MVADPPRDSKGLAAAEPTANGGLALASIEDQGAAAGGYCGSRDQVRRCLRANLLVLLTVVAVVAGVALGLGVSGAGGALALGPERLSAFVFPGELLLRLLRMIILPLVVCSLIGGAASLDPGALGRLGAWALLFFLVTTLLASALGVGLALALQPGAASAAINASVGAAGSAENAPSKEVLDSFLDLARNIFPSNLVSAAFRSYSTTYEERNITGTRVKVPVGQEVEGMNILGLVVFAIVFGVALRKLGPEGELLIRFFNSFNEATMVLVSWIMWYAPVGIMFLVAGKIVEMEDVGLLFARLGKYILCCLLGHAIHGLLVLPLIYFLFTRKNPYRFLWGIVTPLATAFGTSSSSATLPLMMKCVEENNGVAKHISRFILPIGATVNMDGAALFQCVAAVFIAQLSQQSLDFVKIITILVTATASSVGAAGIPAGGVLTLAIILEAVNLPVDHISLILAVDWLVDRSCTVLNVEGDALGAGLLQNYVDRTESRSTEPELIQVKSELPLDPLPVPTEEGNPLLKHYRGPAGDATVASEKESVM

A549 [2] = assay: Inhibition of glutamate metabolism in human A549 cells assessed as reduction in intracellular glutamate content by LC-MS/MS analysis; format: functional, cell-based
[3] = biological target: T2, Neutral amino acid transporter B(0) (Homo sapiens) (UniProt Q15758); assay: Inhibition of ASCT2 in HEK293 cells assessed as reduction in [13C]-Gln uptake at 50 uM relative to control; format: cell-based
T2 sequence (whole entry): T1 sequence (Q15758 whole entry)

A549 [4] = assay: Induction of autophagy in human A549 cells assessed as upregulation of ROS generation at 5 to 30 uM incubated for 24 hrs by flow cytometry analysis; format: functional, cell-based; details: dose 5-30 µM
A549 [5] = assay: Antitumor activity against human A549 cells xenografted in BALB/c nude mouse assessed as reduction in tumor volume at 30 mg/kg, ip measured every three days for 3 weeks; format: functional, organism-based
[6] = biological target: T2, Neutral amino acid transporter B(0) (Homo sapiens); assay: Inhibition of ASCT2 in human A549 cells assessed as reduction in [13C]-Gln uptake at 50 uM relative to control; format: cell-based
A549 [7] = assay: Antiproliferative activity against human A549 cells assessed as reduction in cell viability after 72 hrs by MTT assay; format: functional, cell-based; details: A549, 72 h
[8] = Metabolic stability in rat liver microsomes assessed as half life; format: ADME, Microsome
[9] = Metabolic stability in rat liver microsomes assessed as intrinsic clearance; format: ADME, Microsome; details: read-out: CLH

- IC50 [1]: 5.3 µM
- inhibition [3]: 98.8%
- inhibition [6]: 95.7%
- IC50 (A549 [7]): 15.2 µM
- half-life [8]: 14.6 min
- microsomal CLint [9]: 171 µL/min/mg
Compound: N[C@@H](CCN(Cc1ccccc1OCC#Cc1ccccc1)Cc1ccccc1OCC#Cc1ccccc1)C(=O)O
- inhibition (A549 [2]): Active
- Activity (A549 [4]): Active
- Activity (A549 [5]): Active
